Publication PMC10761072, “Post-transcriptional capping generates coenzyme A-linked RNA” (RNA Biology, 2023)

Biological target: T1, phosphopantetheine adenylyltransferase (PPAT, CoaD) (Escherichia coli, UniProt P0A6I6)
T1 construct: recombinant full-length enzyme expressed from coaD plasmid and purified; hexamer
Assay: capping of […]-labelled 5-mer pppRNA with pPant, denaturing PAGE
Format: biochemical
Conditions: read-out: half-maximal inhibition

T1 sequence (P0A6I6 whole entry): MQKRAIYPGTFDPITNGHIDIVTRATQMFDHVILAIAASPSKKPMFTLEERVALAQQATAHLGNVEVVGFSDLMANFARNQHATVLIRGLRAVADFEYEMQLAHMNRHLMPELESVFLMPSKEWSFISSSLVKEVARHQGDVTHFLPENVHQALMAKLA

Structure (SMILES): Nc1ncnc2c1ncn2[C@@H]1O[C@H](COP(=O)(O)OP(=O)(O)OP(=O)(O)O)[C@@H](O)[C@H]1O [ATP]
- IC50: ~5 µM
